Laboratory results as given in patent publication US6528685B2 (Teva Pharmaceutical Industries, Ltd., priority 1994, dated 2003).
Counter-ions that a name gives are not always drawn. Each block holds one molecule with its values, some of them ahead of it.

Assays:
[1] = system: mice; experiment: Maximal electroshock (MES) model, mice; conditions: mice; for MICE MES ED50: intraperitoneal (i.p.) administration
[2] = system: rats; experiment: Neurotoxicity in rats, positional sense test and gait stance test; conditions: rats p.o.; positional sense test and gait stance test
Protocol: (§1) Neurotoxicity of the claimed agents was also assessed in mice (i.p. administration) by the rotorod ataxia test and/or in rats (p.o. administration) by positional sense test and gait stance test. […] The term quantitating the neurotoxicity is the medial neurological toxic dose (TD50), was determined in the above tests.

[3] = system: mice; experiment: Neurotoxicity in mice, rotorod ataxia test; conditions: mice i.p.; rotorod ataxia test
Protocol: as §1

[4] = system: male ICR albino mice; experiment: Hypobaric hypoxic model in mice, survival time; format: in vivo, mouse
Protocol: Desiccator B was disconnected and allowed to equilibrate with room air whilst desiccator A was evacuated to a pressure of 100 mmHg. […] The survival time from the moment of induction of hypoxia to the time of cessation of respiration was recorded for each mouse for a maximum of 15 minutes after which time room air was reintroduced to desiccator B. Survivors were monitored for signs of lethargy or vitality.
Effect of drug treatment was assessed as the percent of the survival time of the drug treated group with respect to the saline injected or vehicle injected control group. Control groups were run twice, before and after each experimental group and consisted of 12-16 mice in groups of 4 mice. Each experimental group always consisted of 4 mice to ensure a constant residual volume of oxygen in all tests. The effect of each dose of test drug was determined in duplicate i.e. two groups of 4 mice.
All drugs were administered intra-peritoneally at the dose indicated one hour prior to exposure to hypoxia.

[5] = system: rats; experiment: Maximal electroshock (MES) model, rats; conditions: rats, oral (p.o.) administration; median effective dose
[6] = system: mongolian gerbils; experiment: Global brain ischemia in gerbils; format: in vivo, mongolian gerbil; conditions: 3 injections, fraction of hippocampi protected from ischemia, 14 days post-ischemia
Protocol: Male mongolian gerbils, aged 2.5-5 months, housed 4-8 in a cage, were supplied freely with food and water and maintained at 24° C. with a 12 hour day/night cycle. […] Each artery was clamped for 5 minutes with aneurysm clips to produce global brain ischemia. The anesthesia was discontinued upon clamping. After 5 minutes the clamps were removed and the wound closed with skin clips.
For treatment, the test compound or vehicle were injected intra-peritoneally (ip) in a volume of 50 microliters of solvent per 10 g body weight. The first injection was given two minutes after clamp removal, and thereafter daily for the next 2 post-operative days (total of 3 injections).
Seven groups each of 4-8 animals were compared:
V. Ischemia—Test compound treated, one sub-group per concentration tested,
VI. Ischemia and pentobarbital (40 mg/kg) as positive control).
Analysis of neuronal damage was performed 14 days post-ischemia by counting pyramidal neurons throughout the CA1 layer of the anterior hippocampus in […] thick (paraffin) coronal brain sections stained with hematoxylin and erosin.
Percent Protection values represent the fraction of hippocampi protected from ischemia in a group of animals treated with the stated dose of compound.

[7] = 50 mg/kg ip one hour prior to hypoxia
[8] = 100 mg/kg ip one hour prior to hypoxia

SMILES: N[C@H]1CCc2ccc(F)cc21 [K, (S)-6-fluoro-1-aminoindan]
- activity in the MES model in mice, in words [1]: showed activity

SMILES: COc1ccc2c(c1OC)CCC2N (racemic) [Compound 31, (rac)-4,5-Dimethoxy-1-aminoindan.HCl]
- RATS TD50 [2]: >50 mg/kg
- MICE TD50 [3]: <100 mg/kg
- activity in the MES model in mice, in words [1]: showed activity
- MICE MES ED50 [1]: <100 mg/kg

SMILES: Cc1cccc2c1C(N)CC2 (racemic) [Compound 28, (rac)-7-Methyl-1-aminoindan.HCl]
- RATS TD50 [2]: >50 mg/kg
- MICE TD50 [3]: <100 mg/kg
- PROTECTION % OF RESPECTIVE CONTROL [4, 7]: 361 ± 106%
- PROTECTION % OF RESPECTIVE CONTROL [4, 8]: 941 ± 34%
- RATS MES 50 [5]: <50 mg/kg
- MICE MES ED50 [1]: <100 mg/kg

SMILES: O=C(NC1CCc2ccccc21)c1ccccc1 (racemic) [Compound 46, (rac)-N-Benzoyl-1-aminoindan]
- melting point: 140 to 142 °C

SMILES: NC1CCc2ccc(F)cc21 (stereo not drawn) [I, 6-fluoro-1-aminoindan]
- RATS MES 50 [5]: <50 mg/kg

SMILES: C#CCNC1CCc2ccc(F)cc21 (stereo not drawn) [L, 6-fluoro-N-propargyl-1-aminoindan]
- activity in the MES model in mice, in words [1]: showed activity

SMILES: NC(=O)CNC1CCCc2ccccc21 (racemic) [Compound 4, (rac)-N-(2-Acetamido)-1-aminotetralin]
- MICE MES ED50 [1]: <100 mg/kg

SMILES: C[C@H]1Cc2ccccc2[C@H]1N (racemic) [Compound 40, (rac)-cis-2-Methyl-1-aminoindan.HCl]
- RATS TD50 [2]: >50 mg/kg
- MICE TD50 [3]: <100 mg/kg
- PROTECTION % OF RESPECTIVE CONTROL [4, 7]: 374 ± 190%
- PROTECTION % OF RESPECTIVE CONTROL [4, 8]: 569 ± 173%
- RATS MES 50 [5]: <50 mg/kg
- MICE MES ED50 [1]: <100 mg/kg

SMILES: CN(C)C1CCc2ccccc21 (racemic) [Compound 15, (rac)-N,N-Dimethyl-1-aminoindan.HCl]
- RATS TD50 [2]: >50 mg/kg
- MICE TD50 [3]: <100 mg/kg
- RATS MES 50 [5]: 50 mg/kg

SMILES: Cc1ccc2c(c1)CCC2N (racemic) [Compound 38, (rac)-5-Methyl-1-aminoindan.HCl]
- RATS TD50 [2]: >50 mg/kg
- MICE TD50 [3]: <100 mg/kg
- RATS MES 50 [5]: 50 mg/kg
- MICE MES ED50 [1]: <100 mg/kg

SMILES: CC(=O)N[C@H]1CCc2ccccc21 [Compound 19, (S)-N-Acetyl-1-aminoindan]
- PERCENT PROTECTION ([6]; 1.0 mg/kg ip): 0%

SMILES: C#CCN[C@H]1CCc2ccccc21.Cl [G, (S)-N-propargyl-1-aminoindan HCl salt]
- RATS MES 50 [5]: 57 mg/kg

SMILES: C[C@@H]1Cc2ccccc2[C@H]1N (racemic) [Compound 39, (rac)-trans-2-Methyl-1-aminoindan.HCl]
- RATS TD50 [2]: >50 mg/kg
- MICE TD50 [3]: <100 mg/kg
- PROTECTION % OF RESPECTIVE CONTROL [4, 7]: 600 ± 213%
- PROTECTION % OF RESPECTIVE CONTROL [4, 8]: 798 ± 249%
- RATS MES 50 [5]: <50 mg/kg
- MICE MES ED50 [1]: <100 mg/kg

SMILES: Cc1cc(C)c2c(c1)C(C)CC2N.Cl (racemic) [Compound 41, (rac)-3,5,7-Trimethyl-1-aminoindan.HCl]
- PROTECTION % OF RESPECTIVE CONTROL [4, 7]: 187 ± 41%
- PROTECTION % OF RESPECTIVE CONTROL [4, 8]: 644 ± 316%

SMILES: N[C@H]1CCc2ccccc21 [C, (S)-1-aminoindan]
- PERCENT PROTECTION ([6]; 0.1 mg/kg ip): 0%
- PERCENT PROTECTION ([6]; 1.0 mg/kg ip): 50.0%

SMILES: COc1ccc2c(c1)C(N)CC2 (racemic) [Compound 25, (rac)-6-Methoxy-1-aminoindan.HCl]
- MICE TD50 [3]: >100 mg/kg
- RATS MES 50 [5]: 50 mg/kg
- MICE MES ED50 [1]: <100 mg/kg

SMILES: CCOC(=O)c1ccc2c(c1)C(NC(C)=O)CC2 (racemic) [Compound 63, (rac)-6-Ethoxycarbonyl-N-acetyl-1-aminoindan]
- melting point: 146 to 147 °C

SMILES: NC1CCc2ccc(O)cc21 (racemic) [Compound 34, (rac)-6-Hydroxy-1-aminoindan.HCl]
- MICE TD50 [3]: >300 mg/kg
- activity in the MES model in mice, in words [1]: showed activity
- MICE MES ED50 [1]: <300 mg/kg

SMILES: COc1ccc2c(c1OC)CC[C@@H]2N.Cl [Compound 30, (S)-4,5-Dimethoxy-1-aminoindan.HCl]
- PROTECTION % OF RESPECTIVE CONTROL [4, 7]: 265 ± 284%
- PROTECTION % OF RESPECTIVE CONTROL [4, 8]: 379 ± 202%

SMILES: NC1CCc2cccc(O)c21 (racemic) [Compound 42, (rac)-7-Hydroxy-1-aminoindan.HCl]
- RATS TD50 [2]: >50 mg/kg
- PROTECTION % OF RESPECTIVE CONTROL [4, 7]: 179 ± 170%
- PROTECTION % OF RESPECTIVE CONTROL [4, 8]: 228 ± 119%
- RATS MES 50 [5]: <50 mg/kg

SMILES: c1ccc(CNC2CCc3ccccc32)cc1 (racemic) [Compound 16, (rac)-N-Benzyl-1-aminoindan.HCl]
- RATS TD50 [2]: >50 mg/kg
- RATS MES 50 [5]: 50 mg/kg
- MICE MES ED50 [1]: <50 mg/kg

SMILES: NC1Cc2ccccc21 (stereo not drawn) [Compound 27, 1-Aminobenzocyclobutene.HCl]
- RATS TD50 [2]: >50 mg/kg
- MICE TD50 [3]: >100 mg/kg
- RATS MES 50 [5]: <50 mg/kg
- MICE MES ED50 [1]: <100 mg/kg

SMILES: c1ccc2c(c1)CCC2NC1CCc2ccccc21 (racemic) [Compound 43, (rac)-N,N-Di-(1-indanyl)amine.HCl]
- RATS TD50 [2]: >50 mg/kg
- MICE TD50 [3]: <100 mg/kg
- RATS MES 50 [5]: <50 mg/kg
- MICE MES ED50 [1]: <100 mg/kg

Further lines, results first:

- melting point: 152 to 153 °C
SMILES: O=C(N[C@@H]1CCc2ccccc21)C(F)(F)F [Compound 68, (R)-N-Trifluoroacetyl-1-aminoindan]

- melting point: 124 to 125 °C
SMILES: CCCN(CCC)S(=O)(=O)c1ccc(C(=O)NC2CCc3ccccc32)cc1 (racemic) [Compound 69, (rac)-N-(4-(di-n-Propylsulfamoyl)benzoyl)-1-aminoindan]

- melting point: 244 to 247 °C
SMILES: O=C(CCCCC(=O)N[C@@H]1CCc2ccccc21)N[C@@H]1CCc2ccccc21 [Compound 74, N,N′-Bis-((R)-1-indanyl)adipamide]

- melting point: 140 °C
SMILES: COc1cccc(C(=O)NC2CCc3ccccc32)c1 (racemic) [Compound 52, (rac)-N-(m-Anisoyl)-1-aminoindan]

- melting point: 118 to 120 °C
SMILES: CC(C)(C)OC(=O)NCCCC(=O)NC1CCc2ccccc21 (racemic) [Compound 6, (rac)-N-(N-Boc-4-aminobutyryl)-1-aminoindan]

- melting point: 140 °C
SMILES: Cc1ccc(C(=O)NC2CCc3ccccc32)cc1 (racemic) [Compound 54, (rac)-N-(p-Toluoyl)-1-aminoindan]

- melting point: 175 to 176 °C
SMILES: CC(=O)NC1CCc2ccc(C#N)cc21 (racemic) [Compound 61, (rac)-6-Cyano-N-acetyl-1-aminoindan]

- melting point: 133 to 134 °C
SMILES: CCCC(CCC)C(=O)NC1CCc2ccccc21 (stereo not drawn) [Compound 47, N-(2-n-Propylpentanoyl)-1-aminoindan]

- melting point: 109 to 110 °C
SMILES: O=C(NC1CCc2ccccc21)c1ccc(F)cc1 (racemic) [Compound 53, (rac)-N-(4′-Fluorobenzoyl)-1-aminoindan]

- melting point: 84 to 85 °C
SMILES: CCCC(=O)NC1CCc2ccccc21 (racemic) [Compound 11, (rac)-N-Butyryl-1-aminoindan]

- melting point: 105 °C
SMILES: O=CNC1CCc2ccccc21 (racemic) [Compound 8, (rac)-N-Formyl-1-aminoindan]

- melting point: 179 °C
SMILES: CC(=O)NC1CCc2ccc([N+](=O)[O-])cc21 (stereo not drawn) [Compound 58, N-Acetyl-6-nitro-1-aminoindan]

- melting point: 227 °C
SMILES: O=C(CCCCC(=O)NC1CCc2ccccc21)NC1CCc2ccccc21 (stereo not drawn) [Compound 73, N,N′-Bis-(1-indanyl)adipamide]

- melting point: 131 to 132 °C
SMILES: COc1ccc2c(c1)C(NC(C)=O)CC2 (racemic) [Compound 26, (rac) 6-methoxy-N-acetyl-1-aminoindan]

- melting point: 266 to 269 °C
SMILES: O=C(CCC(=O)N[C@@H]1CCc2ccccc21)N[C@@H]1CCc2ccccc21 [Compound 75, N,N′-Bis-((R)-1-indanyl)succinamide]

- melting point: 175 °C
SMILES: COc1ccc2c(c1OC)CC[C@H]2NC(C)=O [Compound 21, (R)-4,5-Dimethoxy-N-acetyl-1-aminoindan]

- melting point: 166 to 167 °C
SMILES: CC(=O)NC1CCc2cccc(C)c21 (racemic) [Compound 20, (rac)-7-Methyl-N-acetyl-1-aminoindan]
